Experimental findings from patent US10695279B2, “Peptide having skin-whitening activity and use thereof” (CAREGEN CO., LTD., priority 2017, dated 2020) are described below.

Assay [1] concerns human keratinocyte line (HaCaT). Particulars: melanosomes pretreated 48 hours, peptide 100, 200 uM, dose-dependent, FIG. 13.
Method: After human keratinocyte line (HaCaT) was cultured in 6-well culture plates for 24 hours, melanosomes isolated from mouse melanoma cell line (B16F10) were pretreated for 48 hours in serum-free culture medium. The plates were washed with PBS to remove un-transferred melanosomes, and then the cells were treated with the peptide at different concentrations (100, 200 uM) or arbutin (200 uM) as a positive control, and TGFβ-1, followed by incubation for 48 hours. In order to measure the degradation of melanosomes phagocytized into keratinocytes, 1 M NaOH was added to pellets obtained by keratinocyte collection and precipitation, and the pellets were dissolved in an oven at 80° C., and then the OD value at 490 nm was measured.
In assay [2] the test system is tyrosinase. The experiment in a line: Gene expression of melanin-forming factors (PCR): tyrosinase. Particulars: B16F10, α-MSH (200 ng/ml), peptide 100, 200 uM, 24 hours, FIG. 6. The assay is classed as cell-based, mouse.
The target in assay [3] is T1, tyrosinase (Mus musculus, UniProt P11344).
T1 construct: endogenous in cells; host or cells: B16F10 mouse melanoma cells
T1 sequence (P11344 19-533): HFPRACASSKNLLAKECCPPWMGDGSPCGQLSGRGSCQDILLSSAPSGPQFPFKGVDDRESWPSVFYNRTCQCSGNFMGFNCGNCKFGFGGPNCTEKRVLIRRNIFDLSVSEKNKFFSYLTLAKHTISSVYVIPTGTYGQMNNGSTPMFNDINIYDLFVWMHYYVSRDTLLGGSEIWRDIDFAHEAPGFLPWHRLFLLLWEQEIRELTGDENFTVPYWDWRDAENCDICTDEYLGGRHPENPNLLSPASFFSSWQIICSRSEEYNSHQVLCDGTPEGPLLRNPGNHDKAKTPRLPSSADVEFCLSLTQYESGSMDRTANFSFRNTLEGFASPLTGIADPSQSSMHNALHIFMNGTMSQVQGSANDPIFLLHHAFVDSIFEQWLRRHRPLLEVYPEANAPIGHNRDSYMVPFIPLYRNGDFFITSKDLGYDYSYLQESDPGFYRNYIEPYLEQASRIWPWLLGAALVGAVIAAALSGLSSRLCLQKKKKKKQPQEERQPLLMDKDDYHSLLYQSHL
The experiment in a line: Measurement of tyrosinase activity in cells (L-dopa, absorbance at 475 nm). It is filed as cell-based. The conditions noted are these: B16F10, α-MSH (200 ng/ml), peptide 50, 100, 200 uM, 72 hours; dose-dependent, **P≤0.01; FIG. 4. As to the method: The 6-well culture plates were loaded on ice and washed with cool PBS, and then 300 μl of 0.1 M sodium phosphate buffer (pH 6.8 lysis buffer) containing 1% Triton X-100 was added. The cells were collected in a 1.5 mL tube, and then cell membranes were disrupted by repeating rapid-freezing at […] and thawing, five times. Then, the tube was centrifuged at 13,000 rpm for 20 minutes, and then the supernatant was collected in another 1.5 mL tube, and the protein content of the samples was quantified. The samples were diluted to have the same protein concentration and then dispensed in three wells each in a 96-well culture plate, and then 20 μl of 10 mM L-dopa was added, followed by incubation at 37° C. for 1 hour.

For assay [4], the system named is human keratinocyte line (HaCaT). The conditions noted are these: peptide 100, 200 uM, 24 hours, Vybrant Phagocytosis Assay Kit, FIG. 12. Here is the method:
After human keratinocyte line (HaCaT) was cultured in 24-well culture plates for 24 hours, the cells were treated with the present peptide at different concentrations (100, 200 uM) or arbutin (200 uM) as a positive control in 0.5% FBS culture medium, followed by incubation for 24 hours. Thereafter, the inhibition of phagocytosis of the human keratinocyte line was observed using the Vybrant Phagocytosis Assay Kit (V-6694).

Assay [5] concerns melanin-forming cells (B16F10 cell line). The conditions noted are these: B16F10, α-MSH (200 ng/ml), peptide 50, 100, 200 uM, 72 hours; dose-dependent, **P≤0.01; FIGS. 2a and 2b.
Method: After melanin-forming cells (B16F10 cell line) dispensed in 6-well culture plates were incubated in a 37° C. incubator for 24 hours, the medium for each plate was removed and then replaced with new medium (2% serum medium). Then, the cells were treated with α-MSH (200 ng/ml), arbutin (200, 500 uM), or the peptide of the present invention at different concentrations (50, 100, 200 uM). Thereafter, the cells were incubated for 72 hours, and then the culture medium was removed. The cells were detached and then transferred into a 1.5 ml tube, followed by centrifugation at 13,000 rpm for 3 minutes. The supernatant was removed, and cell pellets were collected to observe melanin. Then, 150 μl of 2 M NaOH was added to the cell pellets to lyse intracellular melanin at 60° C. for 30 minutes. Then, 100 μl of the supernatant obtained from the lysis was added into each well of a 96-well plate, and the absorbance at 490 nm was measured.
For assay [6], the system named is human keratinocyte line (HaCaT). The conditions noted are these: melanosomes isolated from B16F10, peptide 10, 50, 100, 200 uM, 48 hours, FIG. 10.
Method: After human keratinocyte line (HaCaT) was cultured in 6-well culture plates for 24 hours, the melanosomes isolated from mouse melanoma cell line (B16F10) were pretreated for 3 hours in serum-free culture medium, and then the cells were treated with the present peptide at different concentrations (10, 50, 100, 200 uM) or arbutin (200 uM) as a positive control, followed by incubation for 48 hours. Then, the plates were washed with PBS to remove un-transferred melanosomes, and 1 N NaOH was added to pellets, which had been obtained through cell collection and precipitation. Then, 1 M NaOH was added to the pellets, and the pellets were dissolved in an oven at 80° C., and then the OD value at 490 nm was measured.
For assay [7] the test system is unchanged. Particulars: melanosomes isolated from B16F10, peptide 10, 50, 100, 200 uM, 48 hours, Fontana-Masson staining, dose-dependent, FIG. 11. Here is the method:
After human keratinocyte line (HaCaT) was cultured in 6-well culture plates for 24 hours, the melanosomes isolated from mouse melanoma cell line (B16F10) were pretreated for 3 hours in serum-free culture medium. Then, the cells were treated with the present peptide at different concentrations (10, 50, 100, 200 uM) or arbutin (200 uM) as a positive control, followed by incubation for 48 hours. Then, the plates were washed with PBS to remove un-transferred melanosomes, and subjected to Fontana-Masson staining to observe the inhibition of the melanosome phagocytosis by keratinocytes through a microscope.

For assay [8], the system named is tyrosinase. The experiment in a line: Measurement of tyrosinase expression level (fluorescence microscope, tyrosinase antibody). The assay is classed as cell-based, mouse. Particulars: B16F10, α-MSH (200 ng/ml), peptide 50, 100 uM, 48 hours; dose-dependent; FIG. 5. As to the method:
Then, the cells were incubated for 48 hours, and the intracellular expression protein was stained with FITC-conjugated tyrosinase antibody (Santa Cruz biotechnology, USA) and FITC-conjugated secondary IgG antibody (Santa Cruz biotechnology, USA).

The subject of assay [9] is melanin-forming cells (B16F10 cell line). The conditions noted are these: B16F10, α-MSH (200 ng/ml), peptide 50, 100, 200 uM, 72 hours; dose-dependent; FIG. 3. Here is the method: After melanin-forming cells (B16F10 cell line) dispensed in 6-well culture plates were incubated in a 37° C. incubator for 24 hours, the medium for each plate was removed and replaced with new medium (10% serum medium). Then, the cells were treated with α-MSH (200 ng/ml), arbutin (500 uM), or the peptide of the present invention at different concentrations (50, 100, 200 uM). The cells were incubated for 72 hours, and then the formed melanin was observed through an optical microscope.

The subject of assay [10] is C57BL/6 mice. The experiment in a line: In vivo whitening effect, application to the tail. Particulars: C57BL/6 mice tail skin, liposomal peptide 5,000 ppm once a day, about 8 weeks, F&M staining, versus control group; FIGS. 14b and 14c.
Method: Liposomal peptide (5,000 ppm) or arbutin as a positive control was applied to the tail of 8-week-old C57BL/6 mice once a day, and the experiment was conducted for about 8 weeks. After the completion of the experiment, the mice were sacrificed to extract tail skin tissues, which were then embedded in paraffin to manufacture paraffin blocks. Then, the paraffin blocks were made into paraffin sections and morphologically observed through Fontana-Masson staining.
The test system of assay [11] is tyrosinase. The experiment in a line: Protein expression of melanin-forming factors (western blot): tyrosinase. The assay is classed as cell-based, mouse. The conditions noted are these: B16F10, α-MSH (200 ng/ml), peptide 50, 100 uM, 72 hours, FIG. 7.
In assay [12] the test system is MITF. Particulars: B16F10, α-MSH (200 ng/ml), peptide 100, 200 uM, 24 hours, PCR; FIG. 6. Here is the method:
(§1) After melanin-forming cells (B16F10 cell line) were incubated in 6-well culture plates for 24 hours, the cells were treated with α-MSH (200 ng/ml), arbutin (500 uM), or the present peptide at different concentrations (100, 200 uM). After RNA was extracted from the cells incubated for 24 hours, cDNA was prepared. Then, PCR was conducted using the primers shown in Table 2 below, which are specific to MITF, tyrosinase, and TRP1, respectively, as melanogenesis-involved factors, and then the change in the expression of each gene was observed.

The subject of assay [13] is TRP1. The conditions noted are these: B16F10, α-MSH (200 ng/ml), peptide 100, 200 uM, 24 hours, PCR; FIG. 6. Here is the method:
as §1

Assay [14] deals with CREB. Particulars: B16F10, α-MSH (200 ng/ml), peptide 50, 100 uM, 10 minutes, western blot; FIG. 8. Here is the method: (§2) After melanin-forming cells (B16F10 cell line) were incubated in 6-well culture plates for 24 hours, the cells were treated with α-MSH (200 ng/ml) or the present peptide at different concentrations (50, 100 uM).
Assay [15] concerns MITF. Particulars: B16F10, α-MSH (200 ng/ml), peptide 50, 100 uM, 72 hours, western blot; FIG. 7. Here is the method: as §2
For assay [16], the system named is PAR2. Particulars: HaCaT, trypsin-induced, peptide 100, 200 uM, 16 hours, PCR; FIG. 9. As to the method: After a human keratinocyte line (HaCaT) was incubated in 6-well culture plates for 24 hours, the cells were treated with trypsin as an activity-inducing material and the present peptide at different concentrations (100, 200 uM). After RNA was extracted from the cells incubated for 16 hours, cDNA was prepared.
PCR was conducted using a primer pair (see table 3 below) specific to PAR2, which is one of surface receptors of keratocytes activated by a trypsin action, and then the change in the expression of each gene was observed.

As to “Feruloyl-Ile-Trp-Ser-Leu-Asp-Thr-Gln-Tyr-Gly-Gly-Arg-Gly-Asp-COOH”, in assay [1], the “degradation of melanosomes transferred into keratinocytes” value is listed as “promote the degradation of the melanosomes transferred into the keratinocytes”. Besides, the tyrosinase gene expression result in assay [2] is “strong effects of inhibiting MITF, tyrosinase, and TRP1 genes”. The “tyrosinase activity in cells” value in assay [3] is recorded as “tyrosinase activity inhibitory effect”. In addition, the “amount of bioparticles transferred into keratinocytes (fluorescent microscopic image analysis)” value in assay [4] is given as “distinctive phagocytosis inhibitory effect”. For the same substance, the melanin production entry in assay [5] was “melanogenesis inhibitory effect”. In addition, the “amount of melanosomes transferred into keratinocytes (absorbance)” value in [6] is listed as “phagocytosis inhibitory effect”. Also, the “amount of melanosomes transferred into keratinocytes (optical microscope image analysis)” value in assay [7] is listed as “phagocytosis inhibitory effect”. Also, in assay [8], the tyrosinase expression level result is listed as “tyrosinase expression inhibitory effect”. Besides, the “melanin formation observed through cell morphology” value in [9] is “melanogenesis inhibitory effect”. Moreover, the “amount of melanin distributed in the basal layer of the epidermis” value in [10] was “significantly smaller than that in the control group”. For the same substance, the tyrosinase protein expression result in [11] is “MITF and tyrosinase protein expression inhibitory effects”. The MITF gene expression result in assay [12] was “strong effects of inhibiting MITF, tyrosinase, and TRP1 genes”. For the same substance, in [13], the TRP1 gene expression entry is “strong effects of inhibiting MITF, tyrosinase, and TRP1 genes”. Further, in [14], the “degree of phosphorylation of CREB” value is recorded as “CREB phosphorylation inhibitory effect”. In addition, in assay [15], the MITF protein expression result is “MITF and tyrosinase protein expression inhibitory effects”. In assay [16], the PAR2 gene expression result is recorded as “reduced the expression of PAR2 gene in a dose-dependent manner”.
